Test [1] has as its system STK. Put plainly: DiscoveRx STK HitHunter Assay. Type of test: biochemical.
Test [2] relates to STK. Put plainly: Fluorescent Polarization STK Assay (FP Assay). Type of test: biochemical.

Molecules are shown by their SMILES.

Our source for the IC50 values is patent US6770451B2, “Screening for enzyme inhibitors” (Discoverx, Inc., priority 2001, dated 2004).

The term IC50 denotes the concentration needed to halve the response being measured. Read a high IC50 as weaker potency in that assay. Regarding `COC1C(N(C)CC(=O)O)CC2OC1(C)n1c3ccccc3c3c4c(c5c6ccccc6n2c5c31)C(=O)NC4` (stereo not shown) [STA-CM, N-carboxymethylstaurosporine], the IC50 in the test on STK [1] stood at 92 nM; with STK [2] it was 220 nM.

For the compound `CN[C@@H]1C[C@H]2O[C@@](C)([C@@H]1OC)n1c3ccccc3c3c4c(c5c6ccccc6n2c5c31)C(=O)NC4` [staurosporine], the IC50 in the test on STK [1] was 9 nM; in the test on STK [2] it was 22 nM.
